The values below come from US10266526B2, “Substituted 1,2,3-triazoles as SMYD inhibitors for treating cancer” (EPIZYME, INC., priority 2014, dated 2019).

Read-outs that look alike come from different tables or passages of the source. Where only a bound is given, the exact number is not on record here.

The assay has as its target SMYD3 (Homo sapiens (Human), UniProt Q9H7B4). In words: SMYD3 biochemical assay (SMYD3 enzyme assay on MEKK2 protein substrate, 3H-SAM scintillation proximity assay). The method in brief: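 Detection used scintillation proximity beads to capture ³H-methylated GST-MEKK2 after quench with 100 uM final cold SAM. The reaction was started by SAM/MEKK2 addition after a 30 min RT compound–enzyme preincubation. Enzyme was tag-free full-length human SMYD3 from E. coli, in buffer of 25 mM Tris-Cl pH 8.0, 1 mM TCEP, 0.005% BSG, 0.005% Tween 20.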
For orientation: In a scintillation proximity assay essentially only radioactivity close to the scintillant gives light.

The mark [1] stands for this setting: read-out: SMYD3 Biochem IC50 (μM)*.

Chain of SMYD3 (Q9H7B4 whole entry): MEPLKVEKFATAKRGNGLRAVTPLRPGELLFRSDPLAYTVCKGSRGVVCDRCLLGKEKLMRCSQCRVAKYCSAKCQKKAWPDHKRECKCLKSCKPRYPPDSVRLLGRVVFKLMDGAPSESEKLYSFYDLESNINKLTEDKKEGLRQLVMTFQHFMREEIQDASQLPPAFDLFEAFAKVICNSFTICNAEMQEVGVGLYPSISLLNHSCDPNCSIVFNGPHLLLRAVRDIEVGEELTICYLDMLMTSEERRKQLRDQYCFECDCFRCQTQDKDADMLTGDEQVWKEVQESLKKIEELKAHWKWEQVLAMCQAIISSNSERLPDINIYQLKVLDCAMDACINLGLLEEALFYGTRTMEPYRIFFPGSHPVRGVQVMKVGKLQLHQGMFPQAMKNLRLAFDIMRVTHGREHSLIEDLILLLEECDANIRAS

For `NCCC(=O)N[C@H]1CC[C@H](NC(=O)c2ccncc2)CC1` [compound 139, N-((1r,4r)-4-(3-aminopropanamido)cyclohexyl)isonicotinamide], the IC50 – broadly, the concentration needed to halve the response being measured – under setting [1] is greater than 100 µM.

For `N[C@H]1CC[C@H](NC(=O)c2ccncc2)CC1` [compound 140, N-((1r,4r)-4-aminocyclohexyl)isonicotinamide], the IC50 under setting [1] is greater than 100 µM.

`CC(NC(=O)c1cccnc1)C1CCN(C(=O)[C@H](C)N)CC1` (stereo partly drawn) [compound 141, N-(1-(1-(L-alanyl)piperidin-4-yl)ethyl)nicotinamide]: the IC50 under setting [1] is greater than 100 µM.

On to `NCCC(=O)N[C@H]1CC[C@H](NC(=O)c2cccnc2)CC1` [compound 142, N-((1r,4r)-4-(3-aminopropanamido)cyclohexyl)nicotinamide], for which the IC50 under setting [1] is greater than 100 µM.

Turning to `N[C@H]1CC[C@H](NC(=O)c2cccnc2)CC1` [compound 143, N-((1r,4r)-4-aminocyclohexyl)nicotinamide], the IC50 under setting [1] is greater than 100 µM.

Take `CC(NC(=O)c1ncccn1)C1CCN(C(=O)[C@H](C)N)CC1` (stereo partly drawn) [compound 144, N-(1-(1-(L-alanyl)piperidin-4-yl)ethyl)pyrimidine-2-carboxamide]: the IC50 under setting [1] was greater than 100 µM.

For `NCCC(=O)N[C@H]1CC[C@H](NC(=O)c2ncccn2)CC1` [compound 145, N-((1r,4r)-4-(3-aminopropanamido)cyclohexyl)pyrimidine-2-carboxamide], the IC50 under setting [1] was greater than 100 µM.

`CC(NC(=O)c1ccc2c(c1)OCO2)C1CCN(C(=O)[C@H](C)N)CC1` (stereo partly drawn) [compound 146, N-(1-(1-(L-alanyl)piperidin-4-yl)ethyl)benzo[d][1,3]dioxole-5-carboxamide]: the IC50 under setting [1] is greater than 100 µM.

For the molecule `NCCC(=O)N[C@H]1CC[C@H](NC(=O)c2ccc3c(c2)OCO3)CC1` [compound 147, N-((1r,4r)-4-(3-aminopropanamido)cyclohexyl)benzo[d][1,3]dioxole-5-carboxamide], under setting [1], the IC50 worked out at 98.2 µM.

On to `N[C@H]1CC[C@H](NC(=O)c2ccc3c(c2)OCO3)CC1` [compound 148, N-((1r,4r)-4-aminocyclohexyl)benzo[d][1,3]dioxole-5-carboxamide], for which the IC50 under setting [1] was greater than 100 µM.

As for `CC(NC(=O)c1cccc(S(C)(=O)=O)c1)C1CCN(C(=O)[C@H](C)N)CC1` (stereo partly drawn) [compound 149, N-(1-(1-(L-alanyl)piperidin-4-yl)ethyl)-3-(methylsulfonyl)benzamide], the IC50 under setting [1] was greater than 100 µM.

Regarding `CS(=O)(=O)c1cccc(C(=O)N[C@H]2CC[C@H](NC(=O)CCN)CC2)c1` [compound 150, N-((1r,4r)-4-(3-aminopropanamido)cyclohexyl)-3-(methylsulfonyl)benzamide], under setting [1], the IC50 was greater than 100 µM.

For the molecule `CS(=O)(=O)c1cccc(C(=O)N[C@H]2CC[C@H](N)CC2)c1` [compound 151, N-((1r,4r)-4-aminocyclohexyl)-3-(methylsulfonyl)benzamide], the IC50 under setting [1] was greater than 100 µM.

Regarding `NCCC(=O)N[C@H]1CC[C@H](NC(=O)c2nccnc2N)CC1` [compound 152, 3-amino-N-((1r,4r)-4-(3-aminopropanamido)cyclohexyl)pyrazine-2-carboxamide], the IC50 under setting [1] is greater than 100 µM.

As to `Nc1nccnc1C(=O)N[C@H]1CC[C@H](N)CC1` [compound 153, 3-amino-N-((1r,4r)-4-aminocyclohexyl)pyrazine-2-carboxamide], the IC50 under setting [1] is greater than 100 µM.

As for `NCCC(=O)N[C@H]1CC[C@H](NC(=O)c2ccc(-c3ccccc3)cc2)CC1` [compound 154, N-((1r,4r)-4-(3-aminopropanamido)cyclohexyl)-[1,1′-biphenyl]-4-carboxamide], under setting [1], the IC50 is 37.3 µM.

Take `N[C@H]1CC[C@H](NC(=O)c2ccc(-c3ccccc3)cc2)CC1` [compound 155, N-((1r,4r)-4-aminocyclohexyl)-[1,1′-biphenyl]-4-carboxamide]: the IC50 under setting [1] stood at 79.2 µM.

Consider `NCCC(=O)N[C@H]1CC[C@H](NC(=O)c2ccc(S(N)(=O)=O)cc2)CC1` [compound 156, N-((1r,4r)-4-(3-aminopropanamido)cyclohexyl)-4-sulfamoylbenzamide], for which the IC50 under setting [1] was greater than 100 µM.

For the molecule `CC(NC(=O)c1cncc(F)c1)C1CCN(C(=O)[C@H](C)N)CC1` (stereo partly drawn) [compound 157, N-(1-(1-(L-alanyl)piperidin-4-yl)ethyl)-5-fluoronicotinamide], the IC50 under setting [1] was greater than 100 µM.

With `NCCC(=O)N[C@H]1CC[C@H](NC(=O)c2cncc(F)c2)CC1` [compound 158, N-((1r,4r)-4-(3-aminopropanamido)cyclohexyl)-5-fluoronicotinamide], under setting [1], the IC50 was greater than 100 µM.

Regarding `N[C@H]1CC[C@H](NC(=O)c2cncc(F)c2)CC1` [compound 159, N-((1r,4r)-4-aminocyclohexyl)-5-fluoronicotinamide], under setting [1], the IC50 is greater than 100 µM.

As for `N[C@H]1CC[C@H](NC(=O)c2ccc3cc[nH]c3c2)CC1` [compound 160, N-((1r,4r)-4-aminocyclohexyl)-1H-indole-6-carboxamide], the IC50 under setting [1] was greater than 100 µM.

Consider `N[C@H]1CC[C@H](NC(=O)c2ccc3nc[nH]c3c2)CC1` [compound 161, N-((1r,4r)-4-aminocyclohexyl)-1H-benzo[d]imidazole-6-carboxamide], for which the IC50 under setting [1] was greater than 100 µM.

Take `CC(NC(=O)c1ccc2ccccc2n1)C1CCN(C(=O)[C@H](C)N)CC1` (stereo partly drawn) [compound 162, N-(1-(1-(L-alanyl)piperidin-4-yl)ethyl)quinoline-2-carboxamide]: the IC50 under setting [1] is greater than 100 µM.

Take `NCCC(=O)N[C@H]1CC[C@H](NC(=O)c2ccc3ccccc3n2)CC1` [compound 163, N-((1r,4r)-4-(3-aminopropanamido)cyclohexyl)quinoline-2-carboxamide]: the IC50 under setting [1] was greater than 100 µM.

For the molecule `N[C@H]1CC[C@H](NC(=O)c2ccc3ccccc3n2)CC1` [compound 164, N-((1r,4r)-4-aminocyclohexyl)quinoline-2-carboxamide], the IC50 under setting [1] was greater than 100 µM.

Take `NCCC(=O)N[C@H]1CC[C@H](NC(=O)c2ccc3cnccc3c2)CC1` [compound 165, N-((1r,4r)-4-(3-aminopropanamido)cyclohexyl)isoquinoline-6-carboxamide]: the IC50 under setting [1] was determined as 15.5 µM.

Regarding `N[C@H]1CC[C@H](NC(=O)c2ccc3cnccc3c2)CC1` [compound 166, N-((1r,4r)-4-aminocyclohexyl)isoquinoline-6-carboxamide], under setting [1], the IC50 is 20.7 µM.

Consider `CC(NC(=O)Cc1c[nH]c2ccccc12)C1CCN(C(=O)[C@H](C)N)CC1` (stereo partly drawn) [compound 167, N-(1-(1-(L-alanyl)piperidin-4-yl)ethyl)-2-(1H-indol-3-yl)acetamide], for which the IC50 under setting [1] is greater than 100 µM.

Take `N[C@H]1CC[C@H](NC(=O)Cc2c[nH]c3ccccc23)CC1` [compound 168, N-((1r,4r)-4-aminocyclohexyl)-2-(1H-indol-3-yl)acetamide]: under setting [1], the IC50 was greater than 100 µM.

Regarding `COc1ccc2cc(C(C)C(=O)N[C@H]3CC[C@H](NC(=O)CCN)CC3)ccc2c1` (stereo partly shown) [compound 169, 3-amino-N-((1r,4r)-4-(2-(6-methoxynaphthalen-2-yl)propanamido)cyclohexyl)propanamide], the IC50 under setting [1] is greater than 100 µM.

With `COc1ccc2cc(C(C)C(=O)N[C@H]3CC[C@H](N)CC3)ccc2c1` (stereo partly shown) [compound 170, N-((1r,4r)-4-aminocyclohexyl)-2-(6-methoxynaphthalen-2-yl)propanamide], the IC50 under setting [1] came out at 76.4 µM.

On to `CC(NC(=O)c1nccc2ccccc12)C1CCN(C(=O)[C@H](C)N)CC1` (stereo partly drawn) [compound 171, N-(1-(1-(L-alanyl)piperidin-4-yl)ethyl)isoquinoline-1-carboxamide], for which the IC50 under setting [1] was greater than 100 µM.

As to `N[C@H]1CC[C@H](NC(=O)c2n[nH]c3ccccc23)CC1` [compound 172, N-((1r,4r)-4-aminocyclohexyl)-1H-indazole-3-carboxamide], the IC50 under setting [1] is greater than 100 µM.

As to `NCC(=O)N[C@H]1CC[C@H](NC(=O)c2ccc3c(c2)CC(=O)N3)CC1` [compound 174, N-((1r,4r)-4-(2-aminoacetamido)cyclohexyl)-2-oxoindoline-5-carboxamide], the IC50 under setting [1] was 0.63 µM.

Regarding `CC(N)C(=O)N[C@H]1CC[C@H](NC(=O)c2ccc3c(c2)CC(=O)N3)CC1` (stereo partly shown) [compound 175, N-((1r,4r)-4-(2-aminopropanamido)cyclohexyl)-2-oxoindoline-5-carboxamide], the IC50 under setting [1] came out at 0.42 µM.

Turning to `C[C@H](N)C(=O)N1CCC(C)(CNC(=O)c2ccc3c(c2)CC(=O)N3)CC1` [compound 176, N-((1-(L-alanyl)-4-methylpiperidin-4-yl)methyl)-2-oxoindoline-5-carboxamide], the IC50 under setting [1] was 3.52 µM.

With `C[C@@H](N)C(=O)N1CC[C@H](CNC(=O)c2ccc3c(c2)CC(=O)N3)C1` [compound 177, N-(((R)-1-(D-alanyl)pyrrolidin-3-yl)methyl)-2-oxoindoline-5-carboxamide], under setting [1], the IC50 was 19.8 µM.

With `CN(C(=O)CCN)C1CCC(NC(=O)c2ccc3c(c2)CC(=O)N3)CC1` (stereo not shown) [compound 178, N-(4-(3-amino-N-methylpropanamido)cyclohexyl)-2-oxoindoline-5-carboxamide], the IC50 under setting [1] came out at 3.4 µM.

As for `Cc1nc(-c2ccc(C(=O)NC(C)C3CCN(C(=O)[C@H](C)N)CC3)cc2)no1` (stereo partly drawn) [compound 179, N-(1-(1-(L-alanyl)piperidin-4-yl)ethyl)-4-(5-methyl-1,2,4-oxadiazol-3-yl)benzamide], the IC50 under setting [1] is greater than 100 µM.

Take `Cc1n[nH]c(C)c1C(=O)NC(C)C1CCN(C(=O)[C@H](C)N)CC1` (stereo partly drawn) [compound 180, N-(1-(1-(L-alanyl)piperidin-4-yl)ethyl)-3,5-dimethyl-1H-pyrazole-4-carboxamide]: under setting [1], the IC50 was greater than 100 µM.

With `Cc1n[nH]c(C)c1C(=O)N[C@H]1CC[C@H](NC(=O)CCN)CC1` [compound 181, N-((1r,4r)-4-(3-aminopropanamido)cyclohexyl)-3,5-dimethyl-1H-pyrazole-4-carboxamide], the IC50 under setting [1] was greater than 100 µM.

Turning to `Cc1n[nH]c(C)c1C(=O)N[C@H]1CC[C@H](N)CC1` [compound 182, N-((1r,4r)-4-aminocyclohexyl)-3,5-dimethyl-1H-pyrazole-4-carboxamide], the IC50 (read-out: SMYD3 Biochem IC50) was greater than 100 µM.
